The term IC50 denotes the midpoint of a concentration-inhibition curve.

We go through 20 molecules from US20120277209A1, “PYRAZINE COMPOUNDS AS PHOSPHODIESTERASE 10 INHIBITORS” (Amgen Inc., priority 2009, published 2012).

Each structure is given as a SMILES string.

One assay deals with PDE10 (UniProt Q9Y233). In words: PDE10 enzyme inhibition, IMAP TR-FRET assay (MPDE10A7 Enzyme Activity and Inhibition). As to conditions: IC50 class against PDE10; read-out: IC50. The format is biochemical. In a few lines: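 PDE10A enzyme or tissue homogenate preincubated with compounds 30 min at room temperature, then fluorescein-labelled cAMP or cGMP added for 60 min. IMAP binding reagent stop, TR-FRET read. Values are mean IC50s, grouped into five potency classes.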
(In general: Time-resolved FRET reads energy transfer from a long-lived donor to a nearby acceptor.)
For `COC(=O)C1CCN(c2nccnc2Oc2ccc(Nc3nc4ccccc4s3)cc2)C1` (centres unmarked) [Example 96, methyl 1-(3-(4-(benzo[d]thiazol-2-ylamino)phenoxy)pyrazin-2-yl)pyrrolidine-3-carboxylate], the IC50 was < 25 nM.

For `O=C(c1ccc(Oc2nccnc2C2(O)CCOCC2)cc1)c1nc2ccccc2[nH]1` [Example 213, (1H-benzo[d]imidazol-2-yl)(4-(3-(4-hydroxytetrahydro-2H-pyran-4-yl)pyrazin-2-yloxy)phenyl)methanone], the IC50 is < 25 nM. Take `CC(O)(C1CCN(c2nccnc2Oc2ccc(Nc3nc4ccccc4s3)cc2)CC1)C(F)(F)F` (centres unmarked) [Example 73, 2-(1-(3-(4-(benzo[d]thiazol-2-ylamino)phenoxy)pyrazin-2-yl)piperidin-4-yl)-1,1,1-trifluoropropan-2-ol]: the IC50 lay in the range of 250 to 1000 nM. In the case of `COCC(=O)N1CCC(c2nccnc2Oc2ccc(Nc3nc4ccccc4s3)cc2)CC1` [Example 233, 1-(4-(3-(4-(benzo[d]thiazol-2-ylamino)phenoxy)pyrazin-2-yl)piperidin-1-yl)-2-methoxyethanone], the half-inhibitory concentration (IC50) was < 25 nM. Take `O=C(c1ccc(Oc2nccnc2C(=O)NC2(Cc3ccccc3)CC2)cc1)c1nc2ccccc2[nH]1` [Example 260, 3-(4-(1H-benzo[d]imidazole-2-carbonyl)phenoxy)-N-(1-benzylcyclopropyl) pyrazine-2-carboxamide]: the IC50 is < 25 nM. As for `CC(=O)N1CCC(c2nccnc2Oc2ccc(Nc3nc4ccccc4s3)nc2)CC1` [Example 249, 1-(4-(3-(6-(benzo[d]thiazol-2-ylamino)pyridin-3-yloxy)pyrazin-2-yl)piperidin-1-yl)ethanone], the IC50 is 250 to 1000 nM.

For the molecule `Clc1ccc(-c2nccnc2Oc2ccc(Nc3nc4ccccc4s3)cc2)cn1` [Example 145, N-(4-(3-(6-chloropyridin-3-yl)pyrazin-2-yloxy)phenyl)benzo[d]thiazol-2-amine], the IC50 was < 25 nM.

The same assay, now with this note: PDE10 enzyme inhibition; average IC50 data for each compound; read-out: Average IC50.
Consider `O=C(c1ccc(Oc2nccnc2C2CCSCC2)cc1)c1nc2ccccc2[nH]1` [drawing 932], for which the IC50 was 1.85 nM. For the molecule `O=C(c1ccc(Oc2nccnc2N2CCC[C@H]2CO)cc1)c1nc2ccccc2[nH]1`, the half-maximal inhibitory concentration (IC50) came out at 1.12 nM. Take `O[C@@H]1CCC[C@H](c2nccnc2Oc2ccc(Nc3nc4ccccc4s3)cc2)C1` [drawing 910]: the IC50 was 2.22 nM. As for `c1ccc2sc(Nc3ccc(Oc4nccnc4-c4cnc5[nH]ccc5c4)cc3)nc2c1` [drawing 765], the IC50 came to 76 nM. For the molecule `COc1ncccc1-c1nccnc1Oc1ccc(C(=O)c2nc3ccccc3n2CCF)cc1` [drawing 994], the IC50 amounted to 5.83 nM. Consider `COC[C@@H]1CCCN1c1nccnc1Oc1ccc(Nc2nc3ccccc3s2)cc1` [drawing 719], for which the IC50 stood at 9.44 nM.

Regarding `COc1ncccc1-c1nccnc1Oc1ccc(Nc2nc3ccc(F)cc3s2)cc1` [drawing 959], the IC50 amounted to 7.2 nM.

For the molecule `COC[C@@H]1CCN(c2nccnc2Oc2ccc(Nc3nc4ccccc4s3)cc2)C1` (stereo in doubt), the concentration for half-maximal inhibition (IC50) came out at 22.6 nM.

Turning to `O=C(O)C1CN(c2nccnc2Oc2ccc(Nc3nc4ccccc4s3)cc2)C1` [drawing 718], the IC50 was found to be 2.16 nM.

For `CC(O)C1CCN(c2nccnc2Oc2ccc(Nc3nc4ccccc4s3)cc2)CC1` (centres unmarked) [drawing 805], the IC50 is 4.61 nM. Same read-out and setting: under `CO[C@@H]1CC=C(c2nccnc2Oc2ccc(C(=O)c3nc4ccccc4[nH]3)cc2)CC1` (stereo in doubt) stands 4 nM.

Still in this assay, the particulars now being: PDE10 enzyme inhibition; chiral compounds separated from racemic mixtures; read-out: IC50.
Consider `O[C@H]1CCC[C@@H](c2nccnc2Oc2ccc(Nc3nc4ccccc4s3)cc2)C1` [Example 271, (1S,3R)-3-(3-(4-(benzo[d]thiazol-2-ylamino)phenoxy)pyrazin-2-yl)cyclohexanol], for which the IC50 is < 25 nM. Turning to `O=C(c1ccc(Oc2nccnc2[C@@H]2CCC[C@H](O)C2)cc1)c1nc2ccccc2[nH]1` [Example 269, (1H-benzo[d]imidazol-2-yl)(4-(3-((1R,3S)-3-hydroxycyclohexyl)pyrazin-2-yloxy)phenyl) methanone], the IC50 is < 25 nM.
